Laboratory results from article PMC5667507, “A novel ^18F-labelled high affinity agent for PET imaging of the translocator protein” (Chemical Science, 2015).

What was measured:
TSPO [1] = target: TSPO; parameters: method as in PMID 20045646; settings: printed in Fig. 2; cited from earlier work
[2] = target: T1, human serum albumin (HSA) (Homo sapiens, UniProt P02768); experiment: Human serum albumin (HSA) chromatography for %PPB; assay type: in vitro ADME; settings: human serum albumin (HSA) coated HPLC column, read-out: %PPB (percentage of plasma protein binding) (converted)
T1 construct: purchased ChromTech HSA 5 µm (3.0 × 50 mm) column
T1 sequence (P02768 25-609): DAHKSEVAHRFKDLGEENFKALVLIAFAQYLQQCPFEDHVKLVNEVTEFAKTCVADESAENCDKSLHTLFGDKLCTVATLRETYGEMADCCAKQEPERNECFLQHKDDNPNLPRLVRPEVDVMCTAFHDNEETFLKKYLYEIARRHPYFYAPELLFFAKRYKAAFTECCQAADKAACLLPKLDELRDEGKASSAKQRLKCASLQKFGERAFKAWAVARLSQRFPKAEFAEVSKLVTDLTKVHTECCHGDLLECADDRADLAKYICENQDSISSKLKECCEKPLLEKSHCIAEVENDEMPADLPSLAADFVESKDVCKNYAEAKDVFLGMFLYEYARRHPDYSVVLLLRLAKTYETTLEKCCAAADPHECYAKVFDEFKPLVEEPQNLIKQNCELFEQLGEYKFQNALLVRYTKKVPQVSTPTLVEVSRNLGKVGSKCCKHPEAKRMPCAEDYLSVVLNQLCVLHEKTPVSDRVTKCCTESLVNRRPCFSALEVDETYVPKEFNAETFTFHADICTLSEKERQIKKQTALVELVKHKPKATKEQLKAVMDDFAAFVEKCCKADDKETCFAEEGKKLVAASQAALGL

[3] = Stability testing in phosphate buffered saline at 37 °C (HPLC); assay type: physicochemical; settings: for Purity of Compound (stability testing): 1:1 PBS/acetonitrile, 37 °C
Experimental: The key physicochemical parameters of AB5186 6, permeability (P m), membrane partition coefficient (K m) and percentage of plasma protein binding (%PPB) were determined by high-performance liquid chromatography (HPLC) methods (Table 1).[23] […] As AB5186 6 contains a fluoroalkyl group, a potential alkylating agent, the stability of this compound was examined in simulated physiological conditions. […] The combination of a relatively strong C–F bond and the presence of bulky di-ortho-substituents impart a good level of stability.
3-(Fluoromethyl)-4-phenylquinoline-2-N-diethylcarboxamide (6) (2 mg, […]) was dissolved in a 1:1 mixture of […] phosphate buffered saline and acetonitrile (2 mL) and incubated at 37 ° C. 5 µL of the solution was injected onto the HPLC system (conditions described as below in section 7) at various time points (0, 1, 2, 4, 6 and 24 h). The purity of the compound at these time points was detemined by measuring the area under the peaks of the resultant UV

TSPO [4] = target: T2, TSPO (Rattus norvegicus, UniProt P16257); experiment: Competition binding assay, displacement of [3H]-PK11195 in rat brain homogenates; settings: displacement of [3H]-PK11195, rat brain homogenates; mean ± SD of three independent experiments
T2 construct: Whole brains from male Sprague-Dawley rats (200–300 g) were obtained; from tissue; host or cells: whole brain of male Sprague-Dawley rats, washed membrane homogenate
From the text: Competition Binding Assays
(6 pictures or pasted objects on this page, not shown here)

[5] = used for HSA column calibration; ref literature (SI ref 3); cited from earlier work

3-iodomethylquinoline-2-carboxamide [compound 4]
Ki (TSPO [1]): 12 nM

4-(2-iodophenyl)quinoline-2-carboxamide [compound 5]
Ki (TSPO [1]): 5.01 nM

CCN(CC)C(=O)c1nc2ccccc2c(-c2ccccc2)c1CF [AB5186 6, 3-(Fluoromethyl)-4-phenylquinoline-2-N-diethylcarboxamide]
fraction unbound at 0.5 mg/mL [2]: 0.103 | Purity of Compound (stability testing) ([3]; time 0 h): 98.81% | Purity of Compound (stability testing) ([3]; time 1 h): 98.75% | Purity of Compound (stability testing) ([3]; time 2 h): 98.76% | Purity of Compound (stability testing) ([3]; time 4 h): 98.80% | Purity of Compound (stability testing) ([3]; time 6 h): 98.78% | Purity of Compound (stability testing) ([3]; time 24 h): 91.94% | decomposition ([3]; phosphate buffered saline pH 7.4, 37 °C, after 6 hours): 0.03% | Ki (TSPO [4]): 2.8 ± 0.8 nM

CCC(C)N(C)C(=O)c1cc2ccccc2c(-c2ccccc2Cl)n1 (stereo not drawn) [PK11195 1, reference compound]
fraction unbound at 0.5 mg/mL [2]: 0.085

O=C1CN=C(c2ccccn2)c2cc(Br)ccc2N1 [bromazepam]
%PPB (literature value of calibration standard) [5]: 60.0%

CCCC1O[C@@H]2C[C@H]3[C@@H]4CCC5=CC(=O)C=C[C@]5(C)[C@H]4[C@@H](O)C[C@]3(C)[C@]2(C(=O)CO)O1 (stereo partly drawn) [budesonide]
%PPB (literature value of calibration standard) [5]: 88.0%

CNC(=C[N+](=O)[O-])NCCSCc1csc(CN(C)C)n1 [nizatidine]
%PPB (literature value of calibration standard) [5]: 35.0%
